From US8614214B2, “Pyrazole amide compounds and uses thereof” (Sinochem Corporation, priority 2010, dated 2013)
Like-named read-outs stand apart in the source and are kept apart here.

How the values were obtained:
cucumber downy mildew [1] = assay: Greenhouse pot seedling assay, cucumber downy mildew; type: in vivo; settings: for Control (%): comparative test, Table 18; for control of cucumber downy mildew: greenhouse
banana anthracnose = type: cell-based
[2] = system: corn southern leaf blight; type: cell-based
rice blast [3] = type: in vivo
cucumber downy mildew [4] = assay: Field trial against cucumber downy mildew; type: in vivo; settings: for Control (%) average: average of 3 replicates; for Control (%) I: replicate I; for Control (%) II: replicate II; for Control (%) III: replicate III
Description: The trial was carried out in a greenhouse in July 2011 in […] district, Shanxi Province. Before the treatment, the cucumber plants were at the beginning of infection. The trial method was based on the National Standard of the People's Republic of China-“Pesticide-Guidelines for The Field Efficacy Trials”. […] The Area of plot was 15 m^2, random arrangement and 3 times replication. The volume was about 600 L/hm^2, and water was as the control. Efficacy calculation method is as follows: [formula] [formula]

rice blast [5] = type: cell-based
rice sheath blight = type: cell-based
corn rust = assay: Greenhouse pot seedling assay, corn rust; type: in vivo; settings: for Control (%): comparative test, Table 20; for control of corn rust: greenhouse
cucumber downy mildew [6] = assay: Persistence comparative test against cucumber downy mildew (greenhouse); type: in vivo
wheat powdery mildew = assay: Greenhouse pot seedling assay, wheat powdery mildew; type: in vivo; settings: 400 ppm
sigatoka = type: cell-based
mango anthracnose = type: cell-based

CNC(=O)c1ccccc1NC(=O)COc1ccc(CNC(=O)c2c(Cl)c(C)nn2C)cc1 [Compound 15]
Control (%) (cucumber downy mildew [1]; 6.25 ppm): 44%
Control (%) (cucumber downy mildew [1]; 12.5 ppm): 66%
Control (%) (cucumber downy mildew [1]; 25 ppm): 88%
control of cucumber downy mildew (cucumber downy mildew [1]; 25 ppm): 100%
Control (%) (cucumber downy mildew [1]; 50 ppm): 96%
control of cucumber downy mildew (cucumber downy mildew [1]; 50 ppm): 100%
Control (%) (cucumber downy mildew [1]; 100 ppm): 100%
Biological activity in greenhouse, cucumber downy mildew (cucumber downy mildew [1]; 400 ppm, Table 21): 100
control of cucumber downy mildew (cucumber downy mildew [1]; 400 ppm): 100%
EC50 against banana anthracnose (banana anthracnose): 2.867 ppm
EC50 against corn southern leaf blight [2]: 0.035 ppm
Control (%) I (rice blast [3]; 400 ppm): 69%
Control (%) II (rice blast [3]; 400 ppm): 71%
Control (%) III (rice blast [3]; 400 ppm): 67%
Control (%) average (rice blast [3]; 400 ppm): 69%
Control (%) I (rice blast [3]; 600 ppm): 77%
Control (%) II (rice blast [3]; 600 ppm): 81%
Control (%) III (rice blast [3]; 600 ppm): 77%
Control (%) average (rice blast [3]; 600 ppm): 78%
Control (%) I (rice blast [3]; 800 ppm): 84%
Control (%) II (rice blast [3]; 800 ppm): 89%
Control (%) III (rice blast [3]; 800 ppm): 88%
Control (%) average (rice blast [3]; 800 ppm): 87%
Control (%) average (cucumber downy mildew [4]; 100 ppm): 52%
Control (%) I (cucumber downy mildew [4]; 100 ppm): 33%
Control (%) II (cucumber downy mildew [4]; 100 ppm): 53%
Control (%) III (cucumber downy mildew [4]; 100 ppm): 69%
Control (%) average (cucumber downy mildew [4]; 200 ppm): 66%
Control (%) I (cucumber downy mildew [4]; 200 ppm): 60%
Control (%) II (cucumber downy mildew [4]; 200 ppm): 65%
Control (%) III (cucumber downy mildew [4]; 200 ppm): 72%
Control (%) average (cucumber downy mildew [4]; 400 ppm): 82%
Control (%) I (cucumber downy mildew [4]; 400 ppm): 80%
Control (%) II (cucumber downy mildew [4]; 400 ppm): 81%
Control (%) III (cucumber downy mildew [4]; 400 ppm): 86%
inhibition ratio on spore germination of rice blast (rice blast [5]; 0.3 ppm): 100%
inhibition ratio on spore germination of rice blast (rice blast [5]; 25 ppm): 100%
EC50 against rice sheath blight (rice sheath blight): 0.799 ppm
Control (%) (corn rust; 3.13 ppm): 20%
Control (%) (corn rust; 6.25 ppm): 60%
Control (%) (corn rust; 12.5 ppm): 80%
Control (%) (corn rust; 25 ppm): 95%
control of corn rust (corn rust; 25 ppm): 100%
Control (%) (corn rust; 50 ppm): 100%
Control (%) (corn rust; 100 ppm): 100%
Biological activity in greenhouse, corn rust (corn rust; 400 ppm, Table 21): 100
control of corn rust (corn rust; 400 ppm): 100%
Control (%) (cucumber downy mildew [6]; 25 ppm, inoculation 3 days after treatment): 52%
Control (%) (cucumber downy mildew [6]; 25 ppm, inoculation 7 days after treatment): 44%
Control (%) (cucumber downy mildew [6]; 50 ppm, inoculation 3 days after treatment): 74%
Control (%) (cucumber downy mildew [6]; 50 ppm, inoculation 7 days after treatment): 62%
Control (%) (cucumber downy mildew [6]; 100 ppm, inoculation 3 days after treatment): 96%
Control (%) (cucumber downy mildew [6]; 100 ppm, inoculation 7 days after treatment): 70%
Control (%) (cucumber downy mildew [6]; 200 ppm, inoculation 3 days after treatment): 100%
Control (%) (cucumber downy mildew [6]; 200 ppm, inoculation 7 days after treatment): 74%
Control (%) (cucumber downy mildew [6]; 400 ppm, inoculation 3 days after treatment): 100%
Control (%) (cucumber downy mildew [6]; 400 ppm, inoculation 7 days after treatment): 81%
Biological activity in greenhouse, wheat powdery mildew (wheat powdery mildew; Table 21): 100
control of wheat powdery mildew (wheat powdery mildew; greenhouse): 100%
EC50 against sigatoka (sigatoka): 2.389 ppm
EC50 against mango anthracnose (mango anthracnose): 1.518 ppm
